From ChEMBL document CHEMBL3507680, “University of Dundee, Gates Library screen for HepG2 cell viability”

Assay: Human HepG2 cell viability assay in 384 well format
Assay type: toxicity, cell-based
Parameters: dose 125 nL, time 70.5 hour; concentration not given beside the values
Conditions: HepG2 cells, read-out: Inhibition

CCC(NC(=O)c1ccc(COC)o1)c1nc(C(F)(F)F)cs1 (stereo not drawn)
cytotoxicity at 70.5 h: 4.55%

CNC(=O)CNC(=O)Nc1ccc(F)c(Br)c1
cytotoxicity at 70.5 h: -2.46%

O=C(NCCO)Nc1ccc(Br)c(F)c1
cytotoxicity at 70.5 h: -0.649%

CC(C)N(C(=O)c1ccnc(OCC(F)(F)F)c1)c1cccnc1
cytotoxicity at 70.5 h: -12.7%

Clc1ccc(N2CCN(CCCN3CCCCC3)CC2)nc1
cytotoxicity at 70.5 h: 7.35%

N#Cc1ccc(CS(=O)(=O)NC(=O)c2ccc3c(c2)COC3)cc1
cytotoxicity at 70.5 h: 14.9%

CC(C)CC1(C(=O)NCc2nncn2C2CC2)CCC1
cytotoxicity at 70.5 h: 1.12%

CC(C)CC1(C(=O)NCCc2nncn2C2CC2)CCC1
cytotoxicity at 70.5 h: -3.78%

Cc1n[nH]c(-c2ccc(NC(=O)C(C)(C)N3CCN(C)CC3)cc2)n1
cytotoxicity at 70.5 h: -7.96%

CC(NCc1cccn1C)c1noc(-c2ccc(Cl)cc2)n1 (stereo not drawn)
cytotoxicity at 70.5 h: -9.95%

CCn1cc(CNC(C)c2noc(-c3ccc(Cl)cc3)n2)cn1 (stereo not drawn)
cytotoxicity at 70.5 h: -3.37%

O=C(NC1CC1)N(CCc1ccccc1)C1CCOC1 (stereo not drawn)
cytotoxicity at 70.5 h: 12.1%

Cc1nnc(NCc2ccc(F)cc2)o1
cytotoxicity at 70.5 h: -2.93%

CCc1ccc(C(=O)N(c2cccnc2)C(C)C)cc1S(C)(=O)=O
cytotoxicity at 70.5 h: -8%

CC(C)(C)c1nnc(NCc2ccc(F)cc2)o1
cytotoxicity at 70.5 h: -2.71%

COc1ccc(CNC(c2cccc(F)c2)c2cnn(C)c2)cc1 (stereo not drawn)
cytotoxicity at 70.5 h: -3.12%

CN(C)CCNc1ncccc1CNC(=O)Nc1cc(F)cc(F)c1
cytotoxicity at 70.5 h: -12%

CNC(=O)c1cccc(CCNC2CCSc3ccccc32)c1 (stereo not drawn)
cytotoxicity at 70.5 h: -3.79%

CNC(=O)c1cccc(CNC2CCSc3c(Cl)cccc32)c1 (stereo not drawn)
cytotoxicity at 70.5 h: 35.4%

COc1ccccc1CN1CCCC(n2cccn2)C1 (stereo not drawn)
cytotoxicity at 70.5 h: -1.34%

O=C(CN1CCCCCC1=O)NC1CCc2nccn2C1 (stereo not drawn)
cytotoxicity at 70.5 h: -8.44%

CC(C(=O)N(C)Cc1ccco1)n1cncn1 (stereo not drawn)
cytotoxicity at 70.5 h: 1.02%

CC(C)(C)OC(=O)N1CCCCC(NC(=O)CCc2cccnc2)C1 (stereo not drawn)
cytotoxicity at 70.5 h: -3.57%

Cc1nnc(CSc2ccccn2)o1
cytotoxicity at 70.5 h: -13.6%

N#Cc1cn(C2CC2)c(=O)n(Cc2noc(-c3ccsc3)n2)c1=O
cytotoxicity at 70.5 h: -14%

O=C(CN1CCS(=O)(=O)CC1)Nc1ccc(N2CCCC2)nc1
cytotoxicity at 70.5 h: -5.27%

CS(=O)(=O)NC1CCN(C(=O)NCC2CCCO2)CC1 (stereo not drawn)
cytotoxicity at 70.5 h: -10.3%

CC(C)(CNc1ccccc1S(=O)(=O)C(F)F)N1CCOCC1
cytotoxicity at 70.5 h: -0.0351%

CC(OCC1CC1)C(=O)N1CCCN(c2nc3ccccc3[nH]2)CC1 (stereo not drawn)
cytotoxicity at 70.5 h: -3.86%

Cc1ccc(F)cc1S(=O)(=O)NCc1[nH]ncc1Br
cytotoxicity at 70.5 h: -0.985%

O=C(NC1=NCCS1)C1CSCN1C(=O)C1CCCC1 (stereo not drawn)
cytotoxicity at 70.5 h: -12.4%

N#Cc1cn(C2CC2)c(=O)n(Cc2ncc(-c3cccs3)o2)c1=O
cytotoxicity at 70.5 h: -13%

CCOc1ccc(N(C)Cc2nnc(C)o2)cc1
cytotoxicity at 70.5 h: 19.3%

CN(C)C(=O)CCNC(=O)Nc1sc2ccccc2c1Cl
cytotoxicity at 70.5 h: -7.68%

CS(=O)(=O)CCNC(=O)Nc1sc2ccccc2c1Cl
cytotoxicity at 70.5 h: -11.7%

O=C(CN1C(=O)CCCc2sccc21)NC1CCc2nccn2C1 (stereo not drawn)
cytotoxicity at 70.5 h: -1.68%

CS(=O)(=O)CCCNC(=O)Nc1sc2ccccc2c1Cl
cytotoxicity at 70.5 h: -4.03%

Brc1cnc(NCCCOCC2CCOCC2)nc1
cytotoxicity at 70.5 h: -5.42%

c1cnc(NCCCOC2CCOCC2)nc1
cytotoxicity at 70.5 h: 4.17%

NC(=O)COCCNC(=O)Nc1sc2ccccc2c1Cl
cytotoxicity at 70.5 h: -9.32%

CS(=O)(=O)NCc1ccc(C(=O)NCc2ccc3c(c2)CCC3)o1
cytotoxicity at 70.5 h: -7.15%

CCCC(O)CNc1cncc(Br)c1 (stereo not drawn)
cytotoxicity at 70.5 h: -5.08%

Clc1cc(Cl)cc(CN2CCC(NCc3ncc[nH]3)CC2)c1
cytotoxicity at 70.5 h: -4.36%

COCCN1CC(C(=O)NCc2ccc(C)s2)CC1=O (stereo not drawn)
cytotoxicity at 70.5 h: -1.18%

Cc1noc(CCCC(=O)N(CC2CCOC2)C2CC2)n1 (stereo not drawn)
cytotoxicity at 70.5 h: -11%

CCN(CC1CCOC1)C(=O)CCc1nc(C(C)(C)C)no1 (stereo not drawn)
cytotoxicity at 70.5 h: -10.1%

COC(=O)c1ncccc1N1CCN(C(=O)CN2CCOCC2)CC1
cytotoxicity at 70.5 h: 29.5%

CN(CCSc1nncn1CC(F)(F)F)c1ccccc1
cytotoxicity at 70.5 h: 1.22%
